Laboratory results from PubChem BioAssay (NCI).
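Each compound was tested at five concentrations against cells in 96-well plates for 48 hours. GI50: concentration for 50% inhibition of growth. TGI: total growth inhibition.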

Legend:
Assay in all cases: inhibition of tumour cell growth, NCI panel, 48 h
EKVX NSCLC = test system: EKVX NSCLC
HS 578T breast = test system: HS 578T breast
RPMI-8226 leukemia = test system: RPMI-8226 leukemia
NCI/ADR-RES ovarian = test system: NCI/ADR-RES ovarian
MDA-MB-231 breast = test system: MDA-MB-231 breast
SK-MEL-2 melanoma = test system: SK-MEL-2 melanoma
CCRF-CEM leukemia = test system: CCRF-CEM leukemia
LOX IMVI melanoma = test system: LOX IMVI melanoma
HCC-2998 colon = test system: HCC-2998 colon
HOP-62 NSCLC = test system: HOP-62 NSCLC
SF-295 CNS = test system: SF-295 CNS
TK-10 renal = test system: TK-10 renal
786-0 renal = test system: 786-0 renal
SNB-75 CNS = test system: SNB-75 CNS
SW-620 colon = test system: SW-620 colon
M14 melanoma = test system: M14 melanoma
DU-145 prostate = test system: DU-145 prostate
UACC-62 melanoma = test system: UACC-62 melanoma
A498 renal = test system: A498 renal
NCI-H522 lung = test system: NCI-H522 lung
BT-549 breast = test system: BT-549 breast
SF-539 CNS = test system: SF-539 CNS
CAKI-1 renal = test system: CAKI-1 renal
MOLT-4 leukemia = test system: MOLT-4 leukemia
SR leukemia = test system: SR leukemia
HCT-15 colon = test system: HCT-15 colon
OVCAR-8 ovarian = test system: OVCAR-8 ovarian
UACC-257 melanoma = test system: UACC-257 melanoma
T-47D breast = test system: T-47D breast
HOP-92 NSCLC = test system: HOP-92 NSCLC
SK-OV-3 ovarian = test system: SK-OV-3 ovarian
PC-3 prostate = test system: PC-3 prostate
RXF 393 renal = test system: RXF 393 renal
KM12 colon = test system: KM12 colon
SF-268 CNS = test system: SF-268 CNS
SN12C renal = test system: SN12C renal
IGROV1 ovarian = test system: IGROV1 ovarian
OVCAR-5 ovarian = test system: OVCAR-5 ovarian
OVCAR-4 ovarian = test system: OVCAR-4 ovarian
NCI-H226 lung = test system: NCI-H226 lung
UO-31 renal = test system: UO-31 renal
U251 CNS = test system: U251 CNS
NCI-H460 lung = test system: NCI-H460 lung
HCT-116 colon = test system: HCT-116 colon
SNB-19 CNS = test system: SNB-19 CNS
K-562 leukemia = test system: K-562 leukemia
MALME-3M melanoma = test system: MALME-3M melanoma
MDA-MB-435 = test system: MDA-MB-435
MCF7 breast = test system: MCF7 breast
ACHN renal = test system: ACHN renal

SMILES: N#C/C(=C\c1ccc(-c2ccc(F)cc2)o1)C(=O)Nc1ncc(Cc2ccc(Cl)cc2Cl)s1
- GI50 (EKVX NSCLC): 2.32 µM
- TGI (EKVX NSCLC): 6.88 µM
- GI50 (HS 578T breast): 3.19 µM
- TGI (HS 578T breast): 27.9 µM
- GI50 (RPMI-8226 leukemia): 4.33 µM
- TGI (RPMI-8226 leukemia): > 100 µM
- GI50 (NCI/ADR-RES ovarian): 3.55 µM
- TGI (NCI/ADR-RES ovarian): > 100 µM
- GI50 (MDA-MB-231 breast): 3.67 µM
- TGI (MDA-MB-231 breast): 32.2 µM
- GI50 (SK-MEL-2 melanoma): 2.91 µM
- TGI (SK-MEL-2 melanoma): 16 µM
- GI50 (CCRF-CEM leukemia): 4.23 µM
- TGI (CCRF-CEM leukemia): > 100 µM
- GI50 (LOX IMVI melanoma): 1.64 µM
- TGI (LOX IMVI melanoma): 3.43 µM
- GI50 (HCC-2998 colon): 3.36 µM
- TGI (HCC-2998 colon): > 100 µM
- GI50 (HOP-62 NSCLC): 3.71 µM
- TGI (HOP-62 NSCLC): 16.8 µM
- GI50 (SF-295 CNS): 1.92 µM
- TGI (SF-295 CNS): 4.27 µM
- GI50 (TK-10 renal): 9.27 µM
- TGI (TK-10 renal): 30 µM
- GI50 (786-0 renal): 2.69 µM
- TGI (786-0 renal): 10 µM
- GI50 (SNB-75 CNS): 6.2 µM
- TGI (SNB-75 CNS): 28.4 µM
- GI50 (SW-620 colon): 1.79 µM
- TGI (SW-620 colon): 4.66 µM
- GI50 (M14 melanoma): 2.91 µM
- TGI (M14 melanoma): 23.6 µM
- GI50 (DU-145 prostate): 4.19 µM
- TGI (DU-145 prostate): > 100 µM
- GI50 (UACC-62 melanoma): 3.71 µM
- TGI (UACC-62 melanoma): > 100 µM
- GI50 (A498 renal): 3.03 µM
- TGI (A498 renal): 22 µM
- GI50 (NCI-H522 lung): 3.49 µM
- TGI (NCI-H522 lung): 34.6 µM
- GI50 (BT-549 breast): 1.98 µM
- TGI (BT-549 breast): 4.65 µM
- GI50 (SF-539 CNS): 2.95 µM
- TGI (SF-539 CNS): 8.8 µM
- GI50 (CAKI-1 renal): 3.05 µM
- TGI (CAKI-1 renal): 16.7 µM
- GI50 (MOLT-4 leukemia): 5.24 µM
- TGI (MOLT-4 leukemia): > 100 µM
- GI50 (SR leukemia): 0.778 µM
- TGI (SR leukemia): 12.2 µM
- GI50 (HCT-15 colon): 2.38 µM
- TGI (HCT-15 colon): > 100 µM
- GI50 (OVCAR-8 ovarian): 2.94 µM
- TGI (OVCAR-8 ovarian): 16.7 µM
- GI50 (UACC-257 melanoma): 4.23 µM
- TGI (UACC-257 melanoma): > 100 µM
- GI50 (T-47D breast): 2.75 µM
- TGI (T-47D breast): 29.8 µM
- GI50 (HOP-92 NSCLC): 2.17 µM
- TGI (HOP-92 NSCLC): 9.16 µM
- GI50 (SK-OV-3 ovarian): 8.63 µM
- TGI (SK-OV-3 ovarian): 34.9 µM
- GI50 (PC-3 prostate): 2.19 µM
- TGI (PC-3 prostate): 6.04 µM
- GI50 (RXF 393 renal): 2.28 µM
- TGI (RXF 393 renal): 5.78 µM
- GI50 (KM12 colon): > 100 µM
- TGI (KM12 colon): > 100 µM
- GI50 (SF-268 CNS): 3.15 µM
- TGI (SF-268 CNS): 22.6 µM
- GI50 (SN12C renal): 2.48 µM
- TGI (SN12C renal): 8.64 µM
- GI50 (IGROV1 ovarian): 2.47 µM
- TGI (IGROV1 ovarian): 7.54 µM
- GI50 (OVCAR-5 ovarian): 4.06 µM
- TGI (OVCAR-5 ovarian): > 100 µM
- GI50 (OVCAR-4 ovarian): 2.99 µM
- TGI (OVCAR-4 ovarian): 9.23 µM
- GI50 (NCI-H226 lung): 2.83 µM
- TGI (NCI-H226 lung): 8.52 µM
- GI50 (UO-31 renal): 5 µM
- TGI (UO-31 renal): > 100 µM
- GI50 (U251 CNS): 2.04 µM
- TGI (U251 CNS): 4.11 µM
- GI50 (NCI-H460 lung): 1.76 µM
- TGI (NCI-H460 lung): 3.64 µM
- GI50 (HCT-116 colon): 2.9 µM
- TGI (HCT-116 colon): 10.9 µM
- GI50 (SNB-19 CNS): 4.63 µM
- TGI (SNB-19 CNS): 29.5 µM
- GI50 (K-562 leukemia): 3.48 µM
- TGI (K-562 leukemia): > 100 µM
- GI50 (MALME-3M melanoma): 2.87 µM
- TGI (MALME-3M melanoma): 9.18 µM
- GI50 (MDA-MB-435): 2.95 µM
- TGI (MDA-MB-435): > 100 µM
- GI50 (MCF7 breast): 2.21 µM
- TGI (MCF7 breast): 8.67 µM
- GI50 (ACHN renal): 3.52 µM
- TGI (ACHN renal): 13.9 µM
